What was measured:
[1] = acute toxicity, single oral administration to mice; conditions: mouse, in vivo, p.o.
Source text: Some representative members of the class of compound defined by formula I have been investigated in the tests described below, and it has been shown that in rats and monkeys they display pronounced anxiolytic properties. Moreover, the Table contains data concerning the acute toxicity of these compounds (LD50 in the case of single oral administration to mice).

[2] = Anti-pentetrazole Test; type: in vivo, female mice; conditions: Mus musculus, po, 0.5 h; p.o., mice, 30 minutes before i.v. pentetrazole; dosage giving convulsive threshold ratio treated:untreated of 2:1; read-out: Anti-pentetrazole test, PR 2.0
Procedure: The compound to be tested is administered orally to groups of 6 female mice (19-21 g) and 30 minutes later there is administered intravenously (0.375 ml/minute) a 0.5 percent solution of pentetrazole in sodium chloride solution. The time from the beginning of the infusion until tonic stretchings of the hind limbs appear is measured and therefrom there is calculated the dosage of penetetrazole administered up to this point in time, which is denoted as the convulsive threshold dosage. The PR2.0 is that dosage of the test substance which is required in order that the ratio of the convulsive threshold dosage in treated animals to the convulsive threshold dosage in untreated animals amounts to 2:1.

[3] = Anti-3-mercaptopropionic Acid Test; type: in vivo, female mice; conditions: Mus musculus, po, 0.5 h; p.o., mice, 30 minutes before 48.8 mg/kg i.p. 3-mercaptopropionic acid; Probit method
Procedure: The compound to be tested is administered orally to female mice (19-21 g) and 30 minutes later there are administered i.p. 48.8 mg/kg of 3-mercaptopropionic acid, a dosage which in untreated animals causes after 4 minutes emprosthotonus and tonic stretching of the hind limbs. 12 mice are used per dosage. At least 6 to 8 different dosages are tested. The number of protected test animals per dosage group is determined and the ED50 is determined therefrom by means of the Probit method.

[4] = system: spontaneous movements of rats; test: Determination of the Motor Activity; type: in vivo; conditions: Rattus norvegicus, po, 2 hours, dosage which reduces mobility to 40% of untreated animals
Procedure: Groups each comprising three rats (200 g) are confined in large cages. The test animals can adapt themselves to the new surroundings for 30 minutes; subsequently the test substance is administered to them orally. The spontaneous movements are registered automatically for 2 hours by means of infrared light barriers. The ED40 is that dosage which reduces to 40% the mobility of the test animals in comparison to the untreated animals.

[5] = system: rats; test: Conflict Test in Rats; type: in vivo; conditions: Rattus norvegicus, po, 30 minutes before 1-hour conflict test; Wilcoxon test; read-out: Conflict test in rats, FSD (first significant anxiolytically-effective dosage)
Procedure: The test apparatus is a one-key Skinner box with a feed pellet dispenser. For the testing of potential anxiolytics there are generally used 8 fasted rats per substance and dosage. In this case, there are used rats only which respond to the known anxiolytic chlordiazepoxide.
The test substances, which are dissolved or suspended in a mixture of 10 ml of distilled water and 2 drops of Tween 80, are administered to the test animals with the aid of a probang 30 minutes before the 1-hour conflict test. During the experiment, in which each key press for a feed pellet is combined with a foot-shock (conflict), the number of key operations is registered. In this case, each test animal serves as its own control, in that it is pre-treated once with test substance and once with sodium chloride solution.
The first significant anxiolytically-effective dosage (FSD) is determined with the Wilcoxon test (comparison of pairs) by comparing the number of key operations in the main test (feed pellet+foot-shock, after pre-treatment with test substance) directly with the number of key operations in the control test (feed pellet+foot-shock, after pre-treatment with sodium chloride solution).

[6] = system: squirrel monkeys; test: Conflict Test in Monkeys; type: in vivo, male squirrel monkeys; conditions: for minimal effective dose: Saimiri, in Primates, po, read-out: Conflict test in monkeys, MED (smallest significant effective dosage); for Conflict test in monkeys, HED (highest significant effective dosage): p.o.
Procedure: A two-key Skinner box with a feed pellet dispenser is used as the test apparatus. 13 fasted, male squirrel monkeys weighing 0.8 to 1 kg are used as the test animals. Upon pressing one of the keys the test animals receive a feed pellet on average every 6 minutes. Upon pressing the other key the test animals receive a feed pellet four times more frequently (i.e. on average every 1.5 minutes), but they are simultaneously punished with an electric foot-shock. The foot-shock causes a reduction in the pressing of the key which gives more frequent feed pellets. […] The smallest (MED) and the highest significant effective dosage (HED) are thereby determined.

Structure (SMILES): O=c1[nH]nc2n1-c1ccc(Cl)cc1C(c1ccccc1F)=CC2 [Compound A, 8-chloro-6-(2-fluorophenyl)-2,4-dihydro-1H-s-triazolo[4,3-a][1]benzazepin-1-one]
- LD50 [1]: > 5000 mg/kg
- ED (2-fold convulsive threshold) [2]: 4.1 mg/kg
- ED50 [3]: 6 mg/kg
- ED40 [4]: > 300 mg/kg
- minimal effective dose [5]: 3 mg/kg
- minimal effective dose [6]: 1.25 mg/kg
- Conflict test in monkeys, HED (highest significant effective dosage) [6]: > 80 mg/kg

Structure (SMILES): NCc1nnc2n1-c1ccc(Cl)cc1C(c1ccccc1F)=CC2 [Compound B, 1-(aminomethyl)-8-chloro-6-(2-fluorophenyl)-4H-s-triazolo[4,3-a][1]benzazepine]
- LD50 [1]: 1000 to 2000 mg/kg
- ED (2-fold convulsive threshold) [2]: 5.8 mg/kg
- ED50 [3]: 3.7 mg/kg
- ED40 [4]: > 100 mg/kg
- minimal effective dose [5]: 100 mg/kg
- minimal effective dose [6]: 1.25 mg/kg
- Conflict test in monkeys, HED (highest significant effective dosage) [6]: 10 mg/kg

Structure (SMILES): Cc1nnc2n1-c1ccc(Cl)cc1C(c1ccccc1F)=CC2 [Compound C, 8-chloro-6-(2-fluorophenyl)-1-methyl-4H-s-triazolo[4,3-a][1]benzazepine]
- LD50 [1]: > 5000 mg/kg
- ED (2-fold convulsive threshold) [2]: 4 mg/kg
- ED50 [3]: 1.9 mg/kg
- ED40 [4]: 77 mg/kg
- minimal effective dose [5]: 3 mg/kg
- minimal effective dose [6]: 10 mg/kg
- Conflict test in monkeys, HED (highest significant effective dosage) [6]: > 80 mg/kg
